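Grown in 96-well plates, cells were treated for 48 hours with each compound at five concentrations. Insufficient inhibition: endpoint recorded as highest concentration tested. GI50 marks 50% less growth. At the TGI there is no net growth.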
Tests used:
Experiment in all cases: DTP human tumour cell line panel, 48 h
A498 renal = system: A498 renal
SF-268 CNS = system: SF-268 CNS
U251 CNS = system: U251 CNS
HL-60(TB) leukemia = system: HL-60(TB) leukemia
OVCAR-3 ovarian = system: OVCAR-3 ovarian
OVCAR-5 ovarian = system: OVCAR-5 ovarian
LOX IMVI melanoma = system: LOX IMVI melanoma
M14 melanoma = system: M14 melanoma
HOP-92 NSCLC = system: HOP-92 NSCLC
NCI-H522 lung = system: NCI-H522 lung

## Nc1c(C(=O)c2cccc(C#CCN3CCCCC3)c2)cnn1-c1ccc(F)cc1
A498 renal
  GI50: > 25 µM
  TGI: > 25 µM
SF-268 CNS
  GI50: > 25 µM
  TGI: > 25 µM
U251 CNS
  GI50: > 25 µM
  TGI: > 25 µM
HL-60(TB) leukemia
  GI50: 15.9 µM
  TGI: > 25 µM
OVCAR-3 ovarian
  GI50: > 25 µM
  TGI: > 25 µM
OVCAR-5 ovarian
  GI50: > 25 µM
  TGI: > 25 µM
LOX IMVI melanoma
  GI50: > 25 µM
  TGI: > 25 µM
M14 melanoma
  GI50: > 25 µM
  TGI: > 25 µM
HOP-92 NSCLC
  GI50: 10.3 µM
  TGI: > 25 µM
NCI-H522 lung
  GI50: > 18.9 µM
  TGI: > 25 µM

## COc1cc(F)ccc1-c1cc(Nc2cc(CS(C)(=N)=O)ccn2)ncc1F (centres undefined)
A498 renal
  GI50: 0.0713 µM
  TGI: 0.392 µM
SF-268 CNS
  GI50: 0.0689 µM
  TGI: > 100 µM
U251 CNS
  GI50: 0.0683 µM
  TGI: > 100 µM
HL-60(TB) leukemia
  GI50: 0.0284 µM
  TGI: 0.228 µM
OVCAR-3 ovarian
  GI50: 0.0803 µM
  TGI: > 100 µM
OVCAR-5 ovarian
  GI50: 0.0488 µM
  TGI: > 100 µM
LOX IMVI melanoma
  GI50: 0.0307 µM
  TGI: > 100 µM
M14 melanoma
  GI50: 0.0649 µM
  TGI: > 37.6 µM
HOP-92 NSCLC
  GI50: 0.0214 µM
  TGI: 0.314 µM
NCI-H522 lung
  GI50: 0.248 µM
  TGI: 2.17 µM

## Clc1ccccc1CN1COc2c(ccc3cccnc23)C1
A498 renal
  TGI: 22.1 µM
SF-268 CNS
  TGI: 13.5 µM
U251 CNS
  TGI: 19.1 µM
HL-60(TB) leukemia
  TGI: 4.33 µM
OVCAR-3 ovarian
  TGI: 11.2 µM
OVCAR-5 ovarian
  TGI: 22.8 µM
LOX IMVI melanoma
  TGI: 22.5 µM
M14 melanoma
  TGI: 10.8 µM
HOP-92 NSCLC
  TGI: 7.6 µM
NCI-H522 lung
  TGI: 4.53 µM

## CCOC(=O)c1ccc(NC(=O)NC2=NCCS2)cc1
A498 renal
  GI50: 0.34 µM
  TGI: 2.24 µM
SF-268 CNS
  GI50: 3.5 µM
  TGI: > 100 µM
U251 CNS
  GI50: 0.899 µM
  TGI: > 100 µM
HL-60(TB) leukemia
  GI50: 0.503 µM
  TGI: > 100 µM
OVCAR-3 ovarian
  GI50: 0.289 µM
  TGI: 0.897 µM
OVCAR-5 ovarian
  GI50: 99.1 µM
  TGI: > 100 µM
LOX IMVI melanoma
  GI50: 39.9 µM
  TGI: > 100 µM
M14 melanoma
  GI50: 2.66 µM
  TGI: > 100 µM
HOP-92 NSCLC
  GI50: 0.418 µM
  TGI: > 100 µM
NCI-H522 lung
  GI50: 0.352 µM

## O=C(Nc1cccc2[nH]c(C(F)(F)F)nc12)c1cc(Cl)ccc1Cl
A498 renal
  GI50: 1.63 µM
  TGI: 6.19 µM
SF-268 CNS
  GI50: 4.69 µM
  TGI: > 100 µM
U251 CNS
  GI50: 3.47 µM
  TGI: 14.1 µM
HL-60(TB) leukemia
  GI50: 2.87 µM
  TGI: 7.53 µM
OVCAR-3 ovarian
  GI50: 3.4 µM
  TGI: 10.3 µM
OVCAR-5 ovarian
  GI50: 4.03 µM
  TGI: > 100 µM
LOX IMVI melanoma
  GI50: 2.97 µM
  TGI: 10 µM
M14 melanoma
  GI50: 3.32 µM
  TGI: 16.3 µM
HOP-92 NSCLC
  GI50: 2.09 µM
  TGI: 6.72 µM
NCI-H522 lung
  GI50: 2.27 µM
  TGI: 6.2 µM

## CSc1ncnc2c1ncn2CC(=O)C1CCC2C3CCC4=CC(=O)CCC4(C)C3CCC12C (centres undefined)
A498 renal
  TGI: 38.4 µM
SF-268 CNS
  TGI: > 100 µM
U251 CNS
  TGI: 42.4 µM
HL-60(TB) leukemia
  TGI: 0.926 µM
OVCAR-3 ovarian
  TGI: 25.8 µM
OVCAR-5 ovarian
  TGI: > 100 µM
LOX IMVI melanoma
  TGI: 19.4 µM
M14 melanoma
  TGI: 8.88 µM
HOP-92 NSCLC
  TGI: > 88.3 µM
NCI-H522 lung
  TGI: 24.5 µM

## CCCN(CCC)c1ccc(C=O)c(Cl)c1
A498 renal
  GI50: 0.141 µM
  TGI: 0.289 µM
SF-268 CNS
  GI50: 33.9 µM
  TGI: > 91.5 µM
U251 CNS
  GI50: 6.6 µM
  TGI: 29.9 µM
HL-60(TB) leukemia
  GI50: 27.8 µM
  TGI: 76.1 µM
OVCAR-3 ovarian
  GI50: 1.67 µM
  TGI: 6.7 µM
OVCAR-5 ovarian
  GI50: 0.432 µM
  TGI: 2.33 µM
LOX IMVI melanoma
  GI50: 23.4 µM
  TGI: > 63.7 µM
M14 melanoma
  GI50: 26 µM
  TGI: > 100 µM
HOP-92 NSCLC
  GI50: 9.64 µM
  TGI: 36 µM
NCI-H522 lung
  GI50: 25.2 µM
  TGI: 82.2 µM

## COc1ccc(-c2c(C#N)c(N)nc(N3CCOCC3)c2C#N)cc1
A498 renal
  GI50: 7.36 µM
  TGI: 30.1 µM
SF-268 CNS
  GI50: 32.3 µM
  TGI: > 100 µM
U251 CNS
  GI50: 27.4 µM
  TGI: > 100 µM
HL-60(TB) leukemia
  GI50: 20.2 µM
  TGI: 63.5 µM
OVCAR-3 ovarian
  GI50: 12.9 µM
  TGI: 45.4 µM
OVCAR-5 ovarian
  GI50: 13.9 µM
  TGI: 59.9 µM
LOX IMVI melanoma
  GI50: 14.4 µM
  TGI: 36.9 µM
M14 melanoma
  GI50: 22.6 µM
  TGI: 72.8 µM
HOP-92 NSCLC
  GI50: 14.3 µM
  TGI: 87.7 µM
NCI-H522 lung
  GI50: 8.65 µM
  TGI: 43.6 µM

## NC(=O)c1cccnc1
A498 renal
  GI50: > 100 µM
  TGI: > 100 µM
SF-268 CNS
  GI50: > 100 µM
  TGI: > 100 µM
U251 CNS
  GI50: > 100 µM
  TGI: > 100 µM
HL-60(TB) leukemia
  GI50: > 100 µM
  TGI: > 100 µM
OVCAR-3 ovarian
  GI50: > 100 µM
  TGI: > 100 µM
OVCAR-5 ovarian
  GI50: > 100 µM
  TGI: > 100 µM
LOX IMVI melanoma
  GI50: > 100 µM
  TGI: > 100 µM
M14 melanoma
  GI50: > 100 µM
  TGI: > 100 µM
HOP-92 NSCLC
  GI50: > 100 µM
  TGI: > 100 µM
NCI-H522 lung
  GI50: > 100 µM
  TGI: > 100 µM

## C/C(=C(/c1ccccc1)c1ccc(OCC(O)CNCCN2CCOCC2)cc1)c1ccccc1 (centres undefined)
A498 renal
  GI50: 1.52 µM
  TGI: 10.1 µM
SF-268 CNS
  GI50: 4 µM
  TGI: 15.4 µM
U251 CNS
  GI50: 2.03 µM
  TGI: 4.52 µM
HL-60(TB) leukemia
  GI50: 1.95 µM
  TGI: 4.04 µM
OVCAR-3 ovarian
  GI50: 2.43 µM
  TGI: 7.17 µM
OVCAR-5 ovarian
  GI50: 6.48 µM
  TGI: 20.5 µM
LOX IMVI melanoma
  GI50: 1.72 µM
  TGI: 3.12 µM
M14 melanoma
  GI50: 1.88 µM
  TGI: 3.85 µM
HOP-92 NSCLC
  GI50: 1.5 µM
  TGI: 4.81 µM
NCI-H522 lung
  GI50: 2.22 µM
  TGI: 6.18 µM

## COc1ccc(/C=C2\CCC(CCN(C)C)(C3=CCCC3)C2=O)cc1 (centres undefined)
A498 renal
  TGI: 34.8 µM
SF-268 CNS
  TGI: 40 µM
U251 CNS
  TGI: 30.4 µM
HL-60(TB) leukemia
  TGI: 36.6 µM
OVCAR-3 ovarian
  TGI: 49.7 µM
OVCAR-5 ovarian
  TGI: 47.6 µM
LOX IMVI melanoma
  TGI: 30.8 µM
M14 melanoma
  TGI: 28.3 µM
HOP-92 NSCLC
  TGI: 54.1 µM
NCI-H522 lung
  TGI: 31.2 µM

## COc1ccc(/C=C(\NC(=O)c2ccccc2)c2nc3ccccc3[nH]2)cc1OC
A498 renal
  TGI: > 100 µM
SF-268 CNS
  TGI: > 100 µM
U251 CNS
  TGI: > 100 µM
HL-60(TB) leukemia
  TGI: > 100 µM
OVCAR-3 ovarian
  TGI: > 100 µM
OVCAR-5 ovarian
  TGI: > 100 µM
LOX IMVI melanoma
  TGI: > 100 µM
M14 melanoma
  TGI: > 100 µM
HOP-92 NSCLC
  TGI: > 100 µM
NCI-H522 lung
  TGI: > 100 µM

## CCOC(=O)C1Cc2ccc3c4c(ccc(c24)C1)CC(C(=O)OCC)C3
A498 renal
  TGI: > 100 µM
SF-268 CNS
  TGI: > 100 µM
U251 CNS
  TGI: > 100 µM
HL-60(TB) leukemia
  TGI: > 100 µM
OVCAR-3 ovarian
  TGI: > 100 µM
OVCAR-5 ovarian
  TGI: > 100 µM
LOX IMVI melanoma
  TGI: > 100 µM
M14 melanoma
  TGI: > 100 µM
HOP-92 NSCLC
  TGI: > 100 µM
NCI-H522 lung
  TGI: > 100 µM

## COc1ccc(/C=C2/C(=O)N(C(=O)c3ccccc3O)N=C2C)cc1
A498 renal
  TGI: 0.0747 µM
SF-268 CNS
  TGI: > 100 µM
U251 CNS
  TGI: > 100 µM
HL-60(TB) leukemia
  TGI: 9.87 µM
OVCAR-3 ovarian
  TGI: > 30.4 µM
OVCAR-5 ovarian
  TGI: > 100 µM
LOX IMVI melanoma
  TGI: > 46.6 µM
M14 melanoma
  TGI: > 100 µM
HOP-92 NSCLC
  TGI: > 100 µM
NCI-H522 lung
  TGI: 8.51 µM

## CC(=O)c1ccc2c(c1)N(CCCN1CCN(CCO)CC1)c1ccccc1S2
A498 renal
  GI50: 1.55 µM
  TGI: 3.91 µM
SF-268 CNS
  GI50: 3.15 µM
  TGI: 12.2 µM
U251 CNS
  GI50: 1.94 µM
  TGI: 4.06 µM
HL-60(TB) leukemia
  GI50: 2.12 µM
  TGI: 4.83 µM
OVCAR-3 ovarian
  GI50: 2.85 µM
  TGI: 8.9 µM
OVCAR-5 ovarian
  GI50: 2.29 µM
  TGI: 9.78 µM
LOX IMVI melanoma
  GI50: 1.68 µM
  TGI: 3.26 µM
M14 melanoma
  GI50: 1.88 µM
  TGI: 3.6 µM
HOP-92 NSCLC
  GI50: 1.1 µM
  TGI: 5.97 µM
NCI-H522 lung
  GI50: 1.67 µM
  TGI: 3.64 µM

Source: PubChem BioAssay (NCI)
